In data set [1] the test system is "epilepsy-like" discharges of pyramidal cells. The experiment in a line: penicillin-induced "epileptic" hippocampus section preparation (electrophysiology). As to conditions: in vitro; concentration of 6 μM.

Each structure is given as a SMILES string. Where a name gives a salt, the structure may show the parent alone.

In general, melting point refers to the temperature, or range, at which the solid turns liquid.

`COc1cc(CNC[C@H](O)CP(=O)(O)CC2CCCCC2)ccn1` (as salt: hydrochloride) [Example 2, {3-[(2-methoxy-4-pyridylmethyl)-amino]-2-(S)-hydroxy-propyl}-(cyclohexylmethyl)-phosphinic acid] returned a melting point of 159 to 160 °C.
Regarding `O=c1cc(CNC[C@H](O)CP(=O)(O)Cc2ccccc2)cc[nH]1` (as salt: hydrochloride) [Example 10, {2-(S)-hydroxy-3-[(2-oxo-1,2-dihydro-pyridin-4-ylmethyl)-amino]-propyl}-(benzyl)-phosphinic acid], the melting point lay within 226 to 228 °C.
With `COc1cc(CNC[C@H](O)CP(=O)(O)Cc2ccccc2)ccn1` [Example 4, {3-[(2-methoxy-4-pyridylmethyl)-amino]-2-(S)-hydroxy-propyl}-(benzyl)phosphinic acid], the melting point lay in the range of 192 to 195 °C.
Turning to `NCC(CC(=O)O)c1ccc(Cl)cc1` (stereo not shown) [baclofen], the “effect on "epilepsy-like" discharges of pyramidal cells” value in data set [1] was “inhibits”.

(Values after patent US7498319B2, “Phosphinic acid derivatives” (Novartis AG, priority 2003, dated 2009).)
